What was measured:
S1507-2 [1] = test: relative IC50 (inflection point of fitted dose-response curve, CellTox-Green cytotoxicity, 72 h; top asymptote may be below 50%); higher = less potent
Method in brief: (§1)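 MPNST cell lines and primary human Schwann cells were grown for 72 h at 37 °C in 384-well plates containing five 10-fold compound dilutions. CellTox-Green, added before seeding at a final 1:1000 dilution, gave fluorescence from DNA released by disrupted cells, and signals were scaled to vehicle and positive-control wells. Curves were fitted with a four-parameter logistic model. Drug sensitivity score and relative IC50 come from these fits, with IC50 censored at the top concentration.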

HSC2 [2] = test: as above
Method in brief: as §1

ST8814 [3] = test: as above
Method in brief: as §1

STS26T [4] = test: as above
Method in brief: as §1

HS-PSS [5] = test: as above
Method in brief: as §1

HSC1 [6] = test: relative IC50 (inflection point of fitted dose-response curve, CellTiter-Glo viability, 72 h; top asymptote may be below 50% inhibition); higher = less potent
Method in brief: (§2)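 For this screen, 384-well plates were preprinted with each compound at five concentrations in 10-fold steps and seeded with MPNST cell lines or primary human Schwann cells at 750–1000 cells per well. Incubation lasted 72 h at 37 °C, 5% CO2, and CellTiter-Glo ATP luminescence, scaled between vehicle and positive-control wells and averaged over duplicates where available, served as viability. Logistic fits with four parameters were applied. Relative IC50 (censored at the top concentration) and drug sensitivity score derive from these fits, and percent inhibition is at the top concentration.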

S1507-2 [7] = test: as above
Method in brief: as §2

HSC2 [8] = test: as above
Method in brief: as §2

ST8814 [9] = test: as above
Method in brief: as §2

STS26T [10] = test: as above
Method in brief: as §2

S462 = test: as above
Method in brief: as §2

HS-Sch-2 = test: as above
Method in brief: as §2

HS-PSS [11] = test: as above
Method in brief: as §2

YST-1 = test: as above
Method in brief: as §2

HSC1 [12] = test: relative IC50 (inflection point of fitted dose-response curve, CellTox-Green cytotoxicity, 72 h; top asymptote may be below 50%); higher = less potent
Method in brief: as §1

Row | Structure (SMILES) | relative IC50 (S1507-2 [1]) [µM] | relative IC50 (HSC2 [2]) [µM] | relative IC50 (ST8814 [3]) [µM] | relative IC50 (STS26T [4]) [µM] | relative IC50 (HS-PSS [5]) [µM] | relative IC50 (HSC1 [6]) [µM] | relative IC50 (S1507-2 [7]) [µM] | relative IC50 (HSC2 [8]) [µM] | relative IC50 (ST8814 [9]) [µM] | relative IC50 (STS26T [10]) [µM] | relative IC50 (S462) [µM] | relative IC50 (HS-Sch-2) [µM] | relative IC50 (HS-PSS [11]) [µM] | relative IC50 (YST-1) [µM] | relative IC50 (HSC1 [12]) [µM]
1 | COc1cc2c(cc1O)CC[C@@H]1[C@@H]2CC[C@]2(C)[C@@H](O)CC[C@@H]12 [2-methoxyestradiol] | 1.66 | 1.5 | 3.13 | 1.02 | > 10 | 1.17 | 1.86 | 1.23 | 2.58 | 0.922 | 0.747 | 0.841 | 3.06 | 1.65 | –
2 | Cc1sc2c(c1C)C(c1ccc(Cl)cc1)=N[C@@H](CC(=O)OC(C)(C)C)c1nnc(C)n1-2 [(+)JQ1] | 0.546 | > 10 | 0.404 | > 10 | – | 0.42 | 0.161 | 0.462 | 0.208 | 0.226 | 0.386 | – | – | – | > 10
3 | Cc1cc2c(C(C)C)c(O)c(O)c(C=O)c2c(O)c1-c1c(C)cc2c(C(C)C)c(O)c(O)c(C=O)c2c1O [AT 101] | > 100 | > 100 | – | > 100 | 30.3 | 3.72 | 16.3 | 1.74 | 7.15 | 8.98 | 3.79 | 5.35 | 15.3 | 5.3 | 10.7
4 | COc1cc(OC2CCN(C)CC2)ccc1Nc1ncc2c(n1)n(C1CCCC1)c(=O)n2C [AZ 3146] | 3.51 | – | 2.96 | 1.95 | 3.14 | 3.38 | 2.69 | 3.34 | 2.58 | 1.25 | 0.964 | 1.67 | 1.85 | 1.48 | > 10
5 | CCN(CCO)CCCOc1ccc2c(Nc3cc(CC(=O)Nc4cccc(F)c4)[nH]n3)ncnc2c1 [AZD1152-HQPA] | > 1 | – | 0.206 | 0.161 | > 1 | 0.0223 | 0.107 | 0.0352 | 0.152 | 0.0856 | 0.00543 | > 1 | – | 0.0057 | > 1
6 | COc1ccc(-c2ccc3c(N4CCOC[C@@H]4C)nc(N4CCOC[C@@H]4C)nc3n2)cc1CO [AZD8055] | > 10 | > 10 | – | > 10 | – | 0.0299 | 0.0511 | 0.028 | 0.138 | 0.0695 | 0.0248 | 0.0833 | 0.0917 | 0.0205 | > 10
7 | CS(=O)(=O)OCCCCOS(C)(=O)=O [Busulfan] | > 100 | > 100 | > 100 | > 100 | > 100 | > 100 | > 100 | > 100 | > 100 | > 100 | > 100 | – | > 100 | – | > 100
8 | CC[C@@]1(O)C(=O)OCc2c1cc1n(c2=O)Cc2cc3ccccc3nc2-1 [Camptotechin] | 0.244 | 0.136 | 0.0146 | 0.126 | – | 0.0473 | 0.1 | 0.0405 | 0.0307 | 0.0628 | 0.0302 | – | – | – | 0.0757
9 | O=C(O)C1(C(=O)O)CCC1.[NH2-].[NH2-].[Pt+2] [Carboplatin aq] | 37.3 | 20.5 | 25.1 | 27.3 | – | 14.5 | 20.6 | 14.6 | 24.4 | 19.5 | 17 | – | – | – | 27.6
10 | CCN(CC)CCCC(C)Nc1ccnc2cc(Cl)ccc12 (stereo unspecified) [Chloroquine aq] | 3.28 | 19.9 | 2.82 | 3.19 | – | 12.3 | 1.8 | 13.1 | 3.1 | 5.43 | 6.94 | – | – | – | 15.8
11 | C[C@H]1C=C2C(=O)O[C@H]3CC[C@@H](C1)[C@@]23O [Galiellalactone] | 15.7 | > 50 | > 50 | 14.6 | > 25 | 5.26 | 9.35 | 9.86 | 10.1 | 7.72 | 8.04 | 4.62 | 6.45 | 9.96 | –
12 | COC1=C2C[C@@H](C)C[C@H](OC)[C@H](O)[C@@H](C)/C=C(\C)[C@H](OC(N)=O)[C@@H](OC)/C=C\C=C(/C)C(=O)NC(=CC1=O)C2=O [Geldanamycin] | 2.65 | 0.211 | 1.32 | 1.16 | – | 0.363 | 1.69 | 0.338 | 0.765 | 0.78 | 0.454 | – | – | – | 0.204
13 | COc1cc2c(cc1-c1c(C)noc1C)ncc1[nH]c(=O)n([C@H](C)c3ccccn3)c12 [I-BET151] | 1.4 | > 10 | 1.24 | > 10 | > 10 | 0.992 | 1.25 | 1.15 | 0.918 | 1.13 | 1.31 | 1.06 | 1.71 | 1.07 | –
14 | C=CC(=O)N1CCC[C@@H](n2nc(-c3ccc(Oc4ccccc4)cc3)c3c(N)ncnc32)C1 [Ibrutinib] | > 1 | > 1 | > 1 | > 1 | > 1 | > 1 | > 1 | > 1 | > 1 | > 1 | > 1 | > 1 | – | > 1 | > 1
15 | CC(C)Cn1cnc2c(N)nc3ccccc3c21 [Imiquimod] | > 2.5 | > 2.5 | > 2.5 | > 2.5 | > 2.5 | > 2.5 | > 2.5 | > 2.5 | > 2.5 | > 2.5 | > 2.5 | – | – | > 2.5 | > 2.5
16 | O=C(Nc1ccncc1)C(=O)c1cn(Cc2ccc(Cl)cc2)c2ccccc12 [Indibulin] | 0.494 | 1.58 | 0.43 | 0.146 | > 10 | 0.361 | 0.241 | 0.718 | 0.312 | 0.164 | 0.334 | 0.739 | – | 0.53 | 2
17 | N#Cc1ccc(C(c2ccc(C#N)cc2)n2cncn2)cc1 [Letrozole] | > 10 | > 10 | > 10 | > 10 | > 10 | > 10 | > 10 | > 10 | > 10 | > 10 | > 10 | – | – | > 10 | > 10
18 | Nc1nc(OCc2cc(Br)cs2)c2[nH]cnc2n1 [Lomeguatrib] | > 10 | > 10 | > 10 | > 10 | > 10 | > 10 | > 10 | > 10 | > 10 | > 10 | > 10 | > 10 | – | > 10 | > 10
19 | Cc1ccc(NC(=O)c2ccc(CN3CCN(C)CC3)cc2)cc1Nc1nc(-c2cccnc2)cs1 [Masitinib] | 3.51 | – | 3.22 | 3.34 | 3.85 | 3.4 | 2.06 | 2.6 | 3.23 | 3.37 | 3.3 | 3.27 | 1.83 | 2.33 | 3.82
20 | CC(=O)O[C@]1(C(C)=O)CC[C@H]2[C@@H]3C=C(C)C4=CC(=O)CC[C@]4(C)[C@H]3CC[C@@]21C [Megestrol] | > 10 | > 10 | > 10 | > 10 | – | > 10 | > 10 | > 10 | > 10 | > 10 | > 10 | – | – | – | > 10
21 | CCN(CC)CCCC(C)Nc1c2ccc(Cl)cc2nc2ccc(OC)cc12 (stereo unspecified) [Mepacrine aq] | 2.2 | 1.17 | 2.91 | 2.37 | – | 1.23 | 1.07 | 1.23 | 0.929 | 1.32 | 0.918 | – | – | – | 0.956
22 | CCNC(=O)c1noc(-c2cc(C(C)C)c(O)cc2O)c1-c1ccc(CN2CCOCC2)cc1 [NVP-AUY922] | 0.0139 | 0.0204 | 0.0679 | 0.0421 | – | 0.0143 | 0.0183 | 0.012 | 0.0229 | 0.0229 | 0.0217 | – | – | – | 0.0232
23 | Cc1cn(-c2cc(NC(=O)c3ccc(C)c(Nc4nccc(-c5cccnc5)n4)c3)cc(C(F)(F)F)c2)cn1 [Nilotinib] | > 10 | – | > 10 | > 10 | > 10 | > 10 | > 10 | > 10 | > 10 | > 10 | > 10 | – | – | – | > 10
24 | C=CCc1cccc(/C=N/NC(=O)CN2CCN(Cc3ccccc3)CC2)c1O [PAC-1] | > 10 | > 10 | – | > 10 | 2.02 | 1.89 | 3.66 | 1.37 | 2.92 | 2.53 | 3.49 | 1.13 | 2.32 | 2.43 | > 10
25 | CN(C)C[C@@H]1CCn2cc(c3ccccc32)C2=C(C(=O)NC2=O)c2cn(c3ccccc23)CCO1 [Ruboxistaurin] | 2.96 | 1.88 | – | 2.43 | 3.67 | 3.29 | 2.17 | 1.97 | 1.2 | 2.98 | 2.08 | 3.42 | 2.89 | 1.36 | 2.06
26 | c1ccc2c(CCNc3ccc(Nc4ccncc4)cc3)c[nH]c2c1 [Serdemetan] | 2.81 | > 10 | 0.865 | 3.31 | 3.24 | 1.37 | 1.62 | 1.35 | 0.887 | 2.44 | 1.15 | 3.74 | 2.71 | 0.876 | –
27 | Cn1cncc1[C@@](N)(c1ccc(Cl)cc1)c1ccc2c(c1)c(-c1cccc(Cl)c1)cc(=O)n2C [Tipifarnib] | > 10 | > 10 | – | 0.342 | > 10 | 1.35 | 0.0975 | 0.585 | 0.366 | 0.351 | 0.51 | 1.51 | 0.683 | 0.175 | –
28 | CS(=O)(=O)c1ccc(C(=O)Nc2ccc(Cl)c(-c3ccccn3)c2)c(Cl)c1 [Vismodegib] | > 10 | > 10 | > 10 | > 10 | > 10 | > 10 | > 10 | > 10 | > 10 | > 10 | > 10 | – | – | – | –

— the supplement of paper PMC5579334
